Measured values reported in US20100285000A1, “USE OF VEGFR-2 INHIBITORS FOR TREATING METASTATIC CANCER” (BRISTOL-MYERS SQUIBB COMPANY, priority 2007, published 2010).

Tests used:
[1] = system: MDA-MB-231 breast cancer cells; assay: MDA-MB-231 orthotopic model of tumor metastasis (lung metastases after resection of the primary tumor); format: in vivo; conditions: human MDA-MB-231 cells in mouse mammary fat pad, tumors resected day 24, treatment from day 28, IP twice weekly; Comp-I 30 mg/kg, bevacizumab 5 mg/kg; control cohort 84%
From the text: MDA-MB-231 breast tumor cells implanted in mammary fat pad of mice and resultant tumors resected day 24. Drug treatment was initiated on day 28 and mice were sacrificed at 118 days and local regrowth and lung metastases evaluated.
Human MDA-MB-231 breast cancer cells were implanted in the mouse mammary fat pads at day 0 (1×10^6 MDA-MB-231 breast cancer cells). The resultant tumors were resected at day 24 and treatment initiated 4 days later (Mean tumor volume at resection=400 mm^3). Treatment groups were as follows: Control: PBS, Comp-I: 30 mg/kg, and bevacizumab 5 mg/kg (100 μL IP injections twice weekly). When mice were sacrificed, the extent of local regrowth and numbers of lung metastases were evaluated.

[2] = Bhuyan et al. Cancer Res. 42, 3532-3537 (1982); cited from earlier work

Molecule	mice showing lung metastases (incidence of metastases) [1] [%]	potency in vitro relative to commonly used anti-cancer drugs (doxorubicin, methotrexate, vincristine) [2]
bevacizumab	74	–
COc1c(O)c2c(c3cc(C(=O)N4CCc5c4c(O)c(OC)c4[nH]c(C(=O)N6CC7CC78C6=CC(=O)c6[nH]cc(C)c68)cc54)[nH]c13)CCN2C(N)=O (centres unmarked) [CC-1065]	–	about 1000 fold
